Results: patent publication US20230414634A1, “METHODS FOR TREATING CHOLESTATIC PRURITUS” (GlaxoSmithKline Intellectual Property (No.2) Limited, priority 2020, published 2023)

Key:
[1] = system: patients with PBC and cholestatic pruritus; assay: GLIMMER Phase 2b study (NCT02966834): itch efficacy and PBC-40 quality of life; assay type: in vivo, human; conditions: for mean increase in itch responder days: difference from placebo, 12 weeks' treatment
Text: Measurement of Itch (pruritus)—10 Point Numerical Rating Scale (NRS) • Itch Score: itch scores recorded by study participants twice daily; a 0-10 Numerical Rating Scale (NRS) is used to assess itch with a response option of 0 representing no itching and 10 the worst imaginable itching • Worst Daily Itch Score: the worst of two itch scores recorded by a patient daily is considered the score for that day (i.e. the most severe (highest) NRS recorded on a given day) • Mean Worst Daily Itch Score (Weekly Itch Score [WIS]): the average of the Worst Daily Itch Scores in one week (7 days) • Monthly Itch Score (MIS): the worst Mean Worst Daily Itch Score for that month (i.e., worst week score of the 4 weeks) • Itch Response: for example, ≥2-point improvement in mean Worst Daily Itch Score from Baseline • Itch Responder Days: days when the Itch Response definition is met (i.e. days with an Itch Response) • Itch Severity: measured using 0-10 NRS; moderate to severe is ≥4 NRS • Baseline (itch score at the end of the placebo period before treatment,) is the average of the itch scores in the 7 days prior to randomisation (in Example 2, prior to randomisation at Week 4) • Change from Baseline was calculated as the post-Baseline value minus the Baseline value.
GLIMMER trial: Phase 2b study (NCT02966834; GSK study 201000). A randomized, double-blind, placebo-controlled study of linerixibat, an inhibitor of the ileal bile acid transporter, in the treatment of cholestatic pruritus in primary biliary cholangitis, for patients with PBC and pruritus.
The twice daily patient-reported 0-10 Numerical Rating Scale (NRS) worst itch assessment was employed, with the worst value from each day used to calculate the mean worst daily itch, which was then used to assess change in pruritus. This measure has independent content validity in PBC; similar measures are psychometrically valid and have been used to determine changes in itch intensity in PBC.
Patients with PBC with pruritus (≥4 on 0-10 numeric rating scale [NRS]) were enrolled; double-blind treatment was preceded and followed by 4 weeks' single-blind placebo.
At Week 4, patients with NRS ≥3 were randomized,(4:1) to double-blind linerixibat or placebo for 12 weeks (to Week 16), followed by single-blind placebo (to Week 20).
Primary endpoint: mean change from baseline in mean Worst Daily Itch Score at Week 16. Participants were required to score the severity of their itching using the 0-10 NRS, from which the Worst Daily Itch Score is obtained, and the Mean Worst Daily Itch score was calculated as the average of the worst daily itch scores provided in the 7 days prior to the Week 16 visit. Baseline is the average of the scores in the 7 days prior to the Week 4, and the Change from Baseline was calculated. Analysis was done using Analysis of covariance (ANCOVA) including treatment group and centered Mean Worst Daily Itch score at Baseline.
Secondary and exploratory endpoints: itch efficacy, quality of life (PBC-40) and pharmacodynamic biomarkers, and safety and tolerability.
Ad hoc endpoint: change from baseline itch compared with Monthly Itch Score over the main study period.
Due to the potential fluctuation of itch over time, an additional post-hoc analysis was conducted on the primary endpoint according to the FDA preferred approach to evaluate the effect over the entire 12 weeks treatment duration using Monthly Itch Score. A mixed model repeated measures (or mixed-effect repeated measure model) (MMRM) analysis estimated the effect of linerixibat comparing to placebo over the entire 12 weeks treatment duration.

[2] = system: TSBA, C4, FGF-19, serum autotaxin and LDL cholesterol; assay: GLIMMER Phase 2b study: pharmacodynamic serum biomarkers; assay type: in vivo, human
Text: The following biomarkers are useful in clinical investigations relating to the treatment of pruritus, particularly cholestatic pruritus:
Serum 7-α-hydroxy-4-cholesten-3-one (C4)
C4 is an intermediate in the biochemical synthesis of bile acids from cholesterol. C4 concentrations reflect the activity of the bile acid synthetic pathway.
FGF-19 a protein which functions as a hormone, regulating bile acid synthesis, with effects on glucose and lipid metabolism.
Autotaxin is the enzyme that produces lysophosphatidic acid (LPA) which is found to correlate with itch intensity.
LDL one of the five major groups of lipoprotein which transport all fat molecules around the body in the extracellular water.
TSBA are metabolized in the liver and can serve as a marker for normal liver function.
Measurement of Level of Pharmacodynamic Biomarkers
Total serum bile acids (TSBA) (FIG. 10)
Serum 7-α-hydroxy-4-cholesten-3-one (C4) (FIG. 2)
Serum fibroblast growth factor-19 (FGF-19) (FIG. 7)
Serum LDL (low-density lipoprotein) cholesterol (FIG. 9)
Further analysis of biomarker parameters provided clear indication of pharmacological action with decreases in total serum bile acids (TSBA), increases in the serum bile acid precursor C4 (7-a-hydroxy-4-cholesten-3-one) and corresponding mean decreases in fibroblast growth factor 19 (FGF-19), a hormone that regulates bile acid synthesis. […] Reductions in FGF-19 and autotaxin were also observed across most treatment groups during the main study period (excluding placebo for FGF-19 and linerixibat 20 mg QD for autotaxin) (FIG. 7, FIG. 8).

With `CCCC[C@]1(CC)CS(=O)(=O)c2cc(CNC(CC(=O)O)CC(=O)O)c(OC)cc2[C@@H](c2ccccc2)N1` [linerixibat] the “responder days vs placebo” value ([1]; 40 mg BID and 90 mg BID) was “Significantly more”, the “Mean Worst Daily Itch Score of patients with moderate to severe itch at baseline, versus placebo” value ([1]; 40 mg BID, 12 weeks treatment) was “Significant difference” and the “PBC-40 emotional domain, LS Mean difference vs placebo” value ([1]; 40 mg BID, 95% CI: −1.9, 0.3) was −0.8. For the same compound, the “PBC-40 social domain, LS Mean difference vs placebo” value ([1]; 40 mg BID, 95% CI: −4.8, 0.1) was −2.4, the “mean increase in itch responder days” value ([1]; 40 mg BID) was 20% and the “LS Mean Change from Baseline vs Placebo in Monthly Itch Score over 12 weeks treatment (MMRM, post-hoc)” value (from here on “LS Mean Change from Baseline vs Placebo”) ([1]; 40 mg BID, p=0.011) was -1.16. For the same compound, the “Monthly Itch Score, improvement from baseline over 12 weeks treatment” value ([1]; 40 mg and 90 mg BID, 180 mg QD) was “Significant improvement”, the “mean increase in itch responder days” value ([1]; 90 mg BID) was 27% and the “LS Mean Change from Baseline vs Placebo” value ([1]; 90 mg BID, p=0.037) was −0.95. The “LS Mean Change from Baseline vs Placebo” value ([1]; 180 mg QD, p=0.042) was −0.90, the “pre-specified primary endpoint: dose response across dose ranges” value ([1]; ITT and per protocol populations) was “could not be established” and the “mean Worst Daily Itch Score” value ([1]; all linerixibat doses) was “rapid improvement”. For the same compound, the “PBC-40 itch domain, change from baseline after 12 weeks” value ([1]; all treatment groups including placebo, p≤0.05) was “significant improvement”, the “FGF-19 mean change from baseline compared with placebo (ANCOVA)” value ([2]; 40 mg BID) was “statistically significant reductions” and the “serum C4 increase” value ([2]; 40 mg BID and 90 mg BID doses) was “largest increase”. The “serum autotaxin concentration compared with placebo” value ([2]; 40 mg BID, Week 16) was “significantly decreased”, the “C4 LS mean ratio increases from baseline (MMRM)” value ([2]; 180 mg QD and both BID treatment groups) was “largest increases” and the “LDL cholesterol compared to the placebo group” value ([2]; Week 16, all linerixibat treatment groups with the exception of 20 mg QD) was “significantly reduced”. For the same compound, the “fibroblast growth factor-19 (FGF-19) reduction” value ([2]; two BID doses of 40 mg and 90 mg) was “greatest reduction” and the “total serum bile acids (TSBA) compared with baseline (MMRM)” value ([2]; week 16, 40 mg and 90 mg BID) was “statistically significant decrease”.
